Assay results reported in paper PMC6515479, “An Investigation on Glucuronidation Metabolite Identification, Isozyme Contribution, and Species Differences of GL-V9 In Vitro and In Vivo” (Molecules, 2019).

Assays:
[1] = molecular target: T1, rUGT1A9 (Homo sapiens, UniProt O60656); assay: Recombinant enzyme kinetics of GL-V9 glucuronidation, rUGT1A9; type: in vitro ADME; settings: formation of 5-O-glucuronide GL-V9; rUGT1A9, protein 0.06 mg/mL, 1 h at 37 °C; mean ± SD, n = 3
T1 construct: purchased Corning (Woburn, MA, USA)
T1 sequence (O60656 26-530): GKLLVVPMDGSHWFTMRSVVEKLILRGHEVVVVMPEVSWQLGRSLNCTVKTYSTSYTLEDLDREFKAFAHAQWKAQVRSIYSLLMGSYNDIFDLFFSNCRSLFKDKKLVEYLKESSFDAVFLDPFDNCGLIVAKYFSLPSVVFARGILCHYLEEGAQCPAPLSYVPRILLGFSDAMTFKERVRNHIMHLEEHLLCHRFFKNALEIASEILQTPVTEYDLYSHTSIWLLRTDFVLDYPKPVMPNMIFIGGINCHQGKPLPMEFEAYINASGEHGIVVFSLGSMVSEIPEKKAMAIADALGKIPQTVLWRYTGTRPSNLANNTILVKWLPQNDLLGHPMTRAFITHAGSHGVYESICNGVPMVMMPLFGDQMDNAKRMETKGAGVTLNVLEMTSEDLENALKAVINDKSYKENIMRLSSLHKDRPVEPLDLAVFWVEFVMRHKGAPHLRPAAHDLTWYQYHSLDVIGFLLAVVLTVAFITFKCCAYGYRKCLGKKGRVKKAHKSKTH

[2] = molecular target: T2, rUGT2B4 (Homo sapiens, UniProt P06133); assay: UGT phenotyping of GL-V9 glucuronidation, rUGT2B4; type: in vitro ADME; settings: GL-V9 0.5, 1, 5 μM, 37 °C, 1 h
T2 construct: purchased Corning (Woburn, MA, USA)
T2 sequence (P06133 24-528): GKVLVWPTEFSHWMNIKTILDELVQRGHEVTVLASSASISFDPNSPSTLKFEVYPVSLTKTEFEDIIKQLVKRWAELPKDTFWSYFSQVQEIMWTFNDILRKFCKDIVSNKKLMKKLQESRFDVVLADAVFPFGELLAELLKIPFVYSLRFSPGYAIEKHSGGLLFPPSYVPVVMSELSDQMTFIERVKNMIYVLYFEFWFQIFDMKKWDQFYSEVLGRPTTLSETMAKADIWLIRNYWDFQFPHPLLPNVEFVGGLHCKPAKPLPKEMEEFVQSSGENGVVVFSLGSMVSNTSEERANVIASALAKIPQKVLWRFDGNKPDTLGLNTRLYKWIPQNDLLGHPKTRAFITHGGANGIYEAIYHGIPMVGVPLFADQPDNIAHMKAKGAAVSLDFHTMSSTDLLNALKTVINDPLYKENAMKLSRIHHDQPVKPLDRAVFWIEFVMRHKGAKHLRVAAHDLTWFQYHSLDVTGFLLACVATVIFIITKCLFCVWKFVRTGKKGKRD
Protocol: (§1) The composition of the incubation system (200 μL) contained liver microsomes of different species (0.1 mg protein/mL), 5 mM saccharolactone (D-saccharic acid 1,4-lactone monohydrate), 10 mM MgCl2, alamethicin (50 μg/mg protein), Tris-HCl buffer (50 mM, pH 7.4) and GL-V9 (1 μM). After 5 min of preincubation at 37 °C, UDPGA (5 mM) was added to initiate the phase II reaction. Control incubation samples were performed without UDPGA or without substrates (GL-V9). The reaction was terminated by addition of ice-cold methanol (three volumes) after incubation for 1 h at 37 °C. Samples were vortexed, centrifuged at 21,500× g for 10 min and then stored at 4 °C until HPLC-UV-TripleTOF analysis. To confirm that these metabolites are conjugates resulting from glucuronidation reaction, enzymatic hydrolysis of samples was processed. β-glucuronidase (100 KU, Sigma) was added and the hydrolysis was performed overnight at 37 °C. The control samples were carried out without β-glucuronidase under the same condition.
(§2) Twelve human recombinant UGT isoforms (rUGT1A1, rUGT1A3, rUGT1A4, rUGT1A6, rUGT1A7, rUGT1A8, rUGT1A9, rUGT1A10, rUGT2B4, rUGT2B7, rUGT2B15, and rUGT2B17) were employed to identify the main UGT enzyme(s) responsible for glucuronidation of GL-V9 under mixture conditions as described in Section 4.3. […]

[3] = molecular target: T3, rUGT2B17 (Homo sapiens, UniProt O75795); assay: UGT phenotyping of GL-V9 glucuronidation, rUGT2B17; type: in vitro ADME; settings: GL-V9 0.5, 1, 5 μM, 37 °C, 1 h
T3 construct: purchased Corning (Woburn, MA, USA)
T3 sequence (O75795 24-530): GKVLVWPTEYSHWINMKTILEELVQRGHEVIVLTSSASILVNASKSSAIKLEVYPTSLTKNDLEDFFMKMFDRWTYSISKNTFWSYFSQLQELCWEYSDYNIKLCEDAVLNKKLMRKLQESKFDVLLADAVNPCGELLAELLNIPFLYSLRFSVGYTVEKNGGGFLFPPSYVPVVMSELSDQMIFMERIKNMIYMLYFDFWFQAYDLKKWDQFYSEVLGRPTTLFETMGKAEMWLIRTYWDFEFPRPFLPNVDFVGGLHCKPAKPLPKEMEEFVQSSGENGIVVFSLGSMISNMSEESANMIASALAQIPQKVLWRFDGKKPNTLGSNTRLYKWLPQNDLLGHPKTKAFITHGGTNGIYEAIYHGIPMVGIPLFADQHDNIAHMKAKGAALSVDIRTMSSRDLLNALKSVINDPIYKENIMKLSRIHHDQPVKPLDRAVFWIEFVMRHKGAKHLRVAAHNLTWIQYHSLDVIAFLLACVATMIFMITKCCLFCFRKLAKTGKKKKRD
Protocol: as §1, §2

[4] = cited from earlier work
[5] = GL-V9 in rat plasma, oral (gavage) GL-V9 50 mg/kg, n=6, mean ± SD
[6] = GL-V9 in rats, oral GL-V9 50 mg/kg, n=6, mean ± SD

Vmax [1]: 148.1 ± 2.56 pmol/min/mg
Catalytic activity in the production of 5-O-glucuronide GL-V9 [2]: did not show apparent catalytic activity
Catalytic activity in the production of 5-O-glucuronide GL-V9 [3]: did not show apparent catalytic activity
Compound: COc1c(OCCCCN2CCCC2)cc(O)c2c(=O)cc(-c3ccccc3)oc12 [GL-V9]
AUC(0-t) [4, 5]: 1212.06 ± 246.47 ng·h/mL
Cmax [4, 5]: 167.33 ± 50.05 ng/mL
T1/2 [4, 5]: 3.08 ± 1.05 h
AUC(0-inf) ([4]; GL-V9 in rat plasma, oral GL-V9 50 mg/kg, n=6, mean ± SD): 1256.04 ± 271.82 ng·h/mL
Tmax ([4]; GL-V9 in rat plasma, oral GL-V9 50 mg/kg, n=6): 0.31 to 0.77 h
F ([4]; GL-V9 in rats, oral GL-V9 50 mg/kg): 8.54%
CL [4, 6]: 689.7 ± 147 mL/min/kg
MRT0-t [4, 6]: 7.70 ± 0.91 h
Vd [4, 6]: 181.06 ± 63.57 L/kg
